Experimental data reported in article PMC8587047, “Synthesis and Biological Evaluation of Harmirins, Novel Harmine–Coumarin Hybrids as Potential Anticancer Agents” (Molecules, 2021).

Legend:
HEK293T = experiment: MTT cytotoxicity assay, HEK293T (non-cancer); type: cell-based, human; conditions: for IC50: Homo sapiens, HEK-293T, MTT, 72 h, mean ± SD, non-cancer cell line, read-out: IC50 Hek293T
Excerpt: (§1) We selected four different cancer cell lines for antiproliferative screening in vitro, which we believed would provide sufficient data on the anticancer potential of the prepared harmirins (hepatocellular carcinoma—HepG2, colorectal adenocarcinoma, Dukes’ type C—SW620, colorectal carcinoma—HCT116, and breast adenocarcinoma—MCF-7). Additionally, we included one non-cancer cell line (embryonic kidney—HEK293T) to evaluate harmirins’ selectivity. The commonly used anticancer drug 5-FU and harmine were used as positive controls. Pre-screening was performed using 50 µM of the tested compound. Only compounds that led to more than 50% reduction in mitochondrial metabolic activity at 50 µM concentration were selected for further analysis. The selectivity index (SI) for each harmirin was calculated as a fractional ratio between the IC50 values for HEK293T and the cancer cell line MCF-7 or HCT116 since these two cell lines were the most susceptible to harmirins.
(§2) The experiments were carried out on five human cell lines purchased from American Type Culture Collection (ATCC, PO BOX 1549, manassas, VA 20108, USA): HepG2 (hepatocellular carcinoma; ATCC® HB-8065™), SW620 (colorectal adenocarcinoma; ATCC® CCL-227™), HCT116 (colorectal carcinoma ATCC® CCL-247™), MCF-7 (breast adenocarcinoma, ATCC® HTB-22™), and HEK293T (embryonic kidney cells; ATCC® CRL-3216™). All cell lines were cultured as monolayers and maintained in Dulbecco’s modified Eagle medium (DMEM) (Capricorn Scientific, USA), supplemented with 10% fetal bovine serum (FBS) (Capricorn Scientific, USA), 100 U/mL penicillin, and 100 µg/mL streptomycin (Capricorn Scientific, USA) in a humidified atmosphere with 5% CO2 at 37 °C. Cells were seeded in 96-well plates (Corning, Durham, NC, USA) at 5000–7000 cells per well (depending on the cell doubling time of a specific cell line) in 0.1 mL media and cultured for 24 h. The next day, the medium was aspirated, and cells were treated for 72 h. Only the compounds that led to more than a 50% reduction in mitochondrial metabolic activity at a concentration of 50 µM were selected for further analysis. The following concentrations of selected compounds were used: 25, 10, 5, and 1 µM. Working dilutions were freshly prepared on the day of the testing. A fresh growth medium was added to untreated control cells, which were defined as 100% viable. DMSO (0.13%) in DMEM was considered a negative control. 5-Fluorouracil (5-FU) and harmine were used as positive controls. At the end of treatment, media was removed, and cells were incubated for 1 h with 0.5 mg/mL MTT (Abcam, Cambridge, MA, USA) dissolved in serum-deprived DMEM. The absorbance was directly proportional to cell viability. The MTT-containing media was then removed, and 0.1 mL isopropanol was added per well to lyse cells and dissolve formazan. The optical density was measured at 570 nm using a microplate reader (VICTOR3, PerkinElmer). Each test point was performed in triplicate. The IC50 values (concentration required to decrease viability by 50%) were calculated by using nonlinear regression on the sigmoidal dose–response plots and are expressed as mean ± SD.

HepG2 = experiment: MTT cytotoxicity assay, HepG2; type: cell-based; conditions: Homo sapiens, HepG2; MTT, 72 h, mean ± SD; read-out: IC50 HepG2
Excerpt: as §1, §2

MCF-7 = experiment: MTT cytotoxicity assay, MCF-7; type: cell-based, human; conditions: for IC50: Homo sapiens, MCF7, MTT, 72 h, mean ± SD, read-out: IC50 MCF-7; for SI (MCF-7): ratio IC50 HEK293T / IC50 MCF-7; for activity against MCF-7, fold stronger than 5-FU: compared with 5-FU IC50; for activity against MCF-7, fold higher than harmine: compared with harmine IC50
Excerpt: as §1, §2

HCT116 = experiment: MTT cytotoxicity assay, HCT116; type: cell-based, human; conditions: for IC50: Homo sapiens, HCT-116, MTT, 72 h, mean ± SD, read-out: IC50 HCT116; for SI (HCT116): ratio IC50 HEK293T / IC50 HCT116
Excerpt: as §1, §2

SW620 = experiment: MTT cytotoxicity assay, SW620; type: cell-based; conditions: Homo sapiens, SW-620; MTT, 72 h, mean ± SD; read-out: IC50 SW620
Excerpt: as §1, §2

Row | SMILES | melting point | IC50 (HEK293T) | IC50 (HepG2) | IC50 (MCF-7) | SI (MCF-7) (MCF-7) | IC50 (HCT116) | SI (HCT116) (HCT116) | IC50 (SW620) | SIs (selectivity towards cancer cells in comparison to HEK293T) (HEK293T; cancer cell line not specified (MCF-7 or HCT116)) | activity against MCF-7, fold stronger than 5-FU (MCF-7) | activity against MCF-7, fold higher than harmine (MCF-7)
1 | O=c1cc(OCc2cn(Cc3nccc4c3[nH]c3ccccc34)nn2)c2ccccc2o1 [4a, 4-((1-((9H-Pyrido[3,4-b]indol-1-yl)methyl)-1H-1,2,3-triazol-4-yl)methoxy)-2H-chromen-2-one] | 260.5 to 264 °C (dec.) | > 50 µM | 29.5 ± 3.5 µM | > 50 µM | >1 | > 50 µM | >1 | > 50 µM |  |  | 
2 | Cc1ccc2oc(=O)cc(OCc3cn(Cc4nccc5c4[nH]c4ccccc45)nn3)c2c1 [4b, 4-((1-((9H-Pyrido[3,4-b]indol-1-yl)methyl)-1H-1,2,3-triazol-4-yl)methoxy)-6-methyl-2H-chromen-2-one] | 246.5 to 251 °C (dec.) | 26 ± 1 µM | 27.3 ± 1.2 µM | 35.7 ± 1 µM | 0.7 | > 50 µM | <0.5 | > 50 µM |  |  | 
3 | O=c1cc(OCc2cn(Cc3nccc4c3[nH]c3ccccc34)nn2)c2cc(Cl)ccc2o1 [4c, 4-((1-((9H-Pyrido[3,4-b]indol-1-yl)methyl)-1H-1,2,3-triazol-4-yl)methoxy)-6-chloro-2H-chromen-2-one] | 263.5 to 265 °C (dec.) | > 50 µM | > 50 µM | 39.1 ± 3.6 µM | >1.3 | > 50 µM | >1 | > 50 µM |  |  | 
4 | O=c1cc(OCc2cn(Cc3nccc4c3[nH]c3ccccc34)nn2)c2cc(F)ccc2o1 [4d, 4-((1-((9H-Pyrido[3,4-b]indol-1-yl)methyl)-1H-1,2,3-triazol-4-yl)methoxy)-6-fluoro-2H-chromen-2-one] | 239.5 to 241 °C (dec.) | 45.8 ± 0.2 µM | > 50 µM | > 50 µM | <0.9 | 33.1 ± 7.7 µM | 1.4 | > 50 µM |  |  | 
5 | O=c1[nH]cc(F)c(=O)[nH]1 [5-FU, 5-fluorouracil, reference compound] |  | 8.1 ± 0.8 µM | 5.5 ± 0.6 µM | 23.9 ± 5.7 µM | 0.3 | 5.2 ± 2.8 µM | 1.6 | 9.4 ± 0.3 µM |  |  | 
6 | Cc1nc(Cn2cc(COc3cc(=O)oc4ccccc34)nn2)cc2c1[nH]c1ccccc12 [5a, 4-((1-((1-Methyl-9H-pyrido[3,4-b]indol-3-yl)methyl)-1H-1,2,3-triazol-4-yl)methoxy)-2H-chromen-2-one] | 149.5 to 153.5 °C (dec.) | 6.5 ± 1.6 µM | 17.8 ± 1.8 µM | > 50 µM | <0.1 | > 50 µM | <0.1 | > 50 µM |  |  | 
7 | Cc1ccc2oc(=O)cc(OCc3cn(Cc4cc5c([nH]c6ccccc65)c(C)n4)nn3)c2c1 [5b, 6-Methyl-4-((1-((1-methyl-9H-pyrido[3,4-b]indol-3-yl)methyl)-1H-1,2,3-triazol-4-yl)methoxy)-2H-chromen-2-one] | 263 to 267.5 °C (dec.) | 27.3 ± 2.1 µM | 16.8 ± 1.4 µM | > 50 µM | <0.6 | 3.2 ± 0.5 µM | 8.6 | > 50 µM | > 7.2 |  | 
8 | Cc1nc(Cn2cc(COc3cc(=O)oc4ccc(Cl)cc34)nn2)cc2c1[nH]c1ccccc12 [5c, 6-Chloro-4-((1-((1-methyl-9H-pyrido[3,4-b]indol-3-yl)methyl)-1H-1,2,3-triazol-4-yl)methoxy)-2H-chromen-2-one] | 254 to 257.5 °C (dec.) | 8.5 ± 0.3 µM | 18.5 ± 2.3 µM | 15 ± 1.3 µM | 0.6 | 7.1 ± 0.7 µM | 1.2 | > 50 µM |  |  | 
9 | Cc1nc(Cn2cc(COc3cc(=O)oc4ccc(F)cc34)nn2)cc2c1[nH]c1ccccc12 [5d, 6-Fluoro-4-((1-((1-methyl-9H-pyrido[3,4-b]indol-3-yl)methyl)-1H-1,2,3-triazol-4-yl)methoxy)-2H-chromen-2-one] | 259 to 261.5 °C (dec.) | 7 ± 1.6 µM | > 50 µM |  | <0.1 | > 50 µM | <0.1 | > 50 µM |  |  | 
10 | Cc1nccc2c1[nH]c1cc(OCc3cn(-c4cc(=O)oc5ccccc45)nn3)ccc12 [12a, 4-(4-(((1-Methyl-9H-pyrido[3,4-b]indol-7-yl)oxy)methyl)-1H-1,2,3-triazol-1-yl)-2H-chromen-2-one] |  | 14.7 ± 0.8 µM | 19.8 ± 1.1 µM | 21.6 ± 3.7 µM | 0.7 | 10 ± 3.4 µM | 1.5 | 30 ± 3.5 µM |  |  | 

Continued, in another order:

Row | melting point | SMILES | IC50 (HEK293T) | IC50 (HepG2) | IC50 (MCF-7) | SI (MCF-7) (MCF-7) | IC50 (HCT116) | SI (HCT116) (HCT116) | IC50 (SW620) | SIs (selectivity towards cancer cells in comparison to HEK293T) (HEK293T; cancer cell line not specified (MCF-7 or HCT116)) | activity against MCF-7, fold stronger than 5-FU (MCF-7) | activity against MCF-7, fold higher than harmine (MCF-7)
11 | 235.5 to 238 °C (dec.) | Cc1nccc2c1[nH]c1ccc(OCc3cn(-c4cc(=O)oc5ccccc45)nn3)cc12 [11a, 4-(4-(((1-Methyl-9H-pyrido[3,4-b]indol-6-yl)oxy)methyl)-1H-1,2,3-triazol-1-yl)-2H-chromen-2-one] | 6.4 ± 0.2 µM | 6.4 ± 0.2 µM | 2.2 ± 0.2 µM | 3 | 3.3 ± 0.4 µM | 2 | 8.4 ± 0.3 µM |  | 9–13 fold | 5–7 fold
12 | 235 to 242 °C (dec.) | Cc1ccc2oc(=O)cc(-n3cc(COc4ccc5[nH]c6c(C)nccc6c5c4)nn3)c2c1 [11b, 6-Methyl-4-(4-(((1-methyl-9H-pyrido[3,4-b]indol-6-yl)oxy)methyl)-1H-1,2,3-triazol-1-yl)-2H-chromen-2-one] | 21.3 ± 4.1 µM | 13.6 ± 0.8 µM | 10.4 ± 0.8 µM | 2 | > 50 µM | <0.4 | > 50 µM |  |  | 
13 | 220 to 225 °C (dec.) | Cc1nccc2c1[nH]c1ccc(OCc3cn(-c4cc(=O)oc5ccc(Cl)cc45)nn3)cc12 [11c, 6-Chloro-4-(4-(((1-methyl-9H-pyrido[3,4-b]indol-6-yl)oxy)methyl)-1H-1,2,3-triazol-1-yl)-2H-chromen-2-one] | 12.2 ± 1 µM | 14 ± 1.2 µM | 13.3 ± 1.5 µM | 0.9 | 15.5 ± 4.4 µM | 0.8 | 30.3 ± 3.9 µM |  |  | 
14 | 224.5 to 225.5 °C (dec.) | Cc1nccc2c1[nH]c1ccc(OCc3cn(-c4cc(=O)oc5ccc(F)cc45)nn3)cc12 [11d, 6-Fluoro-4-(4-(((1-methyl-9H-pyrido[3,4-b]indol-6-yl)oxy)methyl)-1H-1,2,3-triazol-1-yl)-2H-chromen-2-one] | 6.9 ± 0.6 µM | 14.2 ± 0.4 µM | 1.9 ± 0.2 µM |  | 2.7 ± 0.4 µM |  | 12.7 ± 1.8 µM |  | 9–13 fold | 5–7 fold
15 | 244 to 247 °C (dec.) | Cc1nccc2c1[nH]c1cc(OCc3cn(-c4cc(=O)oc5ccc(Cl)cc45)nn3)ccc12 [12c, 6-Chloro-4-(4-(((1-methyl-9H-pyrido[3,4-b]indol-7-yl)oxy)methyl)-1H-1,2,3-triazol-1-yl)-2H-chromen-2-one] | 46.2 ± 4.7 µM | > 50 µM | 38.2 ± 2.5 µM | 1.2 | 37.6 ± 6.9 µM | 1.2 | > 50 µM |  |  | 
